Values quoted from earlier work in US20070248684A1, “Pharmaceutical formulations of oxcarbazepine and methods for its preparation” (priority 2006, published 2007).

Conditions: in words

solubility in water: practically insoluble
SMILES: NC(=O)N1c2ccccc2CC(=O)c2ccccc21 [Oxcarbazepine, 10-oxo-10,11-dihydro-5H-dibenz[b,f]azepine-5-carboxamide]
